According to ChEMBL document CHEMBL2163212, “Antivirals targeting influenza A virus” (J Med Chem, 2012):

System: Influenza A virus
Experiment: Antiviral activity against Influenza A virus assessed as inhibition of cap dependent viral transcription
Assay type: functional, organism-based

Row | SMILES | IC50
1 | O=C(O)/C(O)=C/C(=O)C1(Cc2ccc(Cl)cc2)CCCN(Cc2ccccc2)C1 (configuration not stated) | 1000 nM
2 | O=C(O)/C(O)=C/C(=O)C1(Cc2ccc(Cl)cc2)CCN(Cc2ccccc2)CC1 | 1000 nM
